Test results taken from publication PMC12302229, “Synergy of triazolyl substituents at C1 and C3 of galactose for high-affinity and selective galectin-4C inhibition” (RSC Chemical Biology, 2025).

How the values were obtained:
galectin-3 = biological target: T1, galectin-3 (Homo sapiens, UniProt P17931); assay: competitive fluorescence polarization assay, galectin-3; conditions: Kd and SEM from 3–6 single point measurements, > values estimated, no apparent binding at highest concentration, read-out: Dissociation constants, Galectin-3
T1 construct: made in house
Protocol: (§1) Affinities of 1c–1z for galectin-1, -3, -4C, -4N, -7, -8C, -8N, -9C, and -9N were measured using an established fluorescence polarization assay[57] with reported probes and conditions.[19] […]
(§2) Fluorescence polarization experiments
(§3) Human galectin-11 and galectin-32 were expressed and purified as earlier described. Fluorescence polarization experiments were performed on a PheraStarFS plate reader with software PHERAstar Mars version 2.10 R3 (BMG, Offenburg, Germany). Specific experimental conditions were a galectin-1 concentration of 0.5 µM together with the fluorescent probe (3,3’-dideoxy-3-[4-(fluorescein-5-yl-carbonylaminomethyl)-1H-1,2,3-triazol-1-yl]-3’-(3,5-di-methoxybenzamido)-1,1’-sulfanediyl-di-β-D-galactopyranoside 1 concentration of 20 nM and a galectin-3 concentration of 0.2 µM together with the fluorescent probe (3,3’-dideoxy-3-[4-(fluorescein-5-yl-carbonylaminomethyl)-1H-1,2,3- […]
(§4) triazol-1-yl]-3’-(3,5-di-methoxybenzamido)-1,1’-sulfanediyl-di-β-D-galactopyranoside) concentration of 20 nM, respectively. Inhibitors were dissolved in dimethylsulfoxide (analytical grade) to a concentration of 20 mM, diluted with PBS to 3–6 different concentrations, and tested in duplicate twice for galectin affinity using a competitive fluorescence polarization assay as earlier described.3 The highest inhibitor concentrations tested were 1 mM due to solubility limitations at higher concentration. Dissociation constants average and SEM were calculated from two to eight single point measurements showing between 20–80% inhibition. […]

galectin-4C = biological target: T2, galectin-4C (Homo sapiens, UniProt P56470); assay: competitive fluorescence polarization assay, galectin-4C; format: binding; conditions: for Kd: fluorescence polarization, x/y cells = only two data points revealed inhibition, both shown, > values estimated, no apparent binding at highest concentration, read-out: Dissociation constants, Galectin-4C
T2 construct: made in house; host or cells: E. coli BL-21 (DE3)
T2 sequence (P56470 185-323): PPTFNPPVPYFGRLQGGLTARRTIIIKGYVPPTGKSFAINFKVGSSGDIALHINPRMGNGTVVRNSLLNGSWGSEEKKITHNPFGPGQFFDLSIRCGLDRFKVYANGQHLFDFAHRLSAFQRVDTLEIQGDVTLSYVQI
Protocol: Affinities of 1c–1z for galectin-1, -3, -4C, -4N, -7, -8C, -8N, -9C, and -9N were measured using an established fluorescence polarization assay[57] with reported probes and conditions.[19]
Recombinant human galectin-4 C-terminal carbohydrate recognition domain was expressed and purified as previously reported.[57,70] Briefly, BL-21 (DE3) E. coli cells containing galectin-4C (amino acid sequence 185–323) was expressed, lysed by sonication and purified by affinity chromatography on a lactosyl-Sepharose column. Galectin-4C protein was eluted using 50 mM β-lactose in PBS, pH 7.4. Galectin-4C was then further gel purified using a Superdex 200/60 column (GE Healthcare) previously equilibrated in PBS, pH 7.4. The peak fractions collected containing galectin-4C were pooled and concentrated to 6.5 mg mL^−1 using an AmiconUltra 3K molecular weight cut-off centrifugal concentrator (Millipore, Billerica, MA, USA) and used directly in crystallisation studies. […]
as §4

galectin-4N = biological target: T3, galectin-4N (Homo sapiens, UniProt P56470); assay: competitive fluorescence polarization assay, galectin-4N; format: binding; conditions: Kd and SEM from 3–6 single point measurements, read-out: Dissociation constants, Galectin-4N
T3 construct: called “N” for the N-terminal CRD and “C” for the C-terminal
T3 sequence (P56470 19-150 limits assumed): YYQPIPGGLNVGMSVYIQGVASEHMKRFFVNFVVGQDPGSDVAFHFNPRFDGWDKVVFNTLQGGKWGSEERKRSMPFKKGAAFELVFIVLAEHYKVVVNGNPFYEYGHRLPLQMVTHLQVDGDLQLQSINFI
Protocol: as §1, §4

galectin-1 = biological target: T4, galectin-1 (Homo sapiens, UniProt P09382); assay: competitive fluorescence polarization assay, galectin-1; format: binding; conditions: fluorescence polarization; Kd and SEM from 3–6 single point measurements; read-out: Dissociation constants, Galectin-1
T4 construct: made in house
Protocol: as §1, §2, §3, §4

T1 sequence (P17931 whole entry): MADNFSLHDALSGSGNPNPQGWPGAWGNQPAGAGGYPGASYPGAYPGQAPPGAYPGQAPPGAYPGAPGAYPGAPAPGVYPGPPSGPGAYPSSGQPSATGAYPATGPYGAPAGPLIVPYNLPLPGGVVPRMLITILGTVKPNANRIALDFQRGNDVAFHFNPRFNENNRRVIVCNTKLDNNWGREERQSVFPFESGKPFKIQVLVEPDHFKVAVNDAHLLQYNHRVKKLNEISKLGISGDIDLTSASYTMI
T4 sequence (P09382 whole entry): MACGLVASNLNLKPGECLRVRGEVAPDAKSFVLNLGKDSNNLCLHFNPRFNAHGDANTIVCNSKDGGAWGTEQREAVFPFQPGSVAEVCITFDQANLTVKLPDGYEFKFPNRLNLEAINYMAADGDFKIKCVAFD

| Kd (galectin-3) [µM] | fold better galectin-4C affinity compared to 1a–b (galectin-4C; effect of adding the C3 phenyltriazolyl) [fold] | Kd (galectin-4C) [µM] | Kd (galectin-4N) [µM] | Kd (galectin-1) [µM] | fold stronger affinity for galectin-4C compared to galectin-1 and galectin-3 (galectin-4C; ratio of Kd) [fold] | Structure (SMILES) | galectin-4C selectivity over other galectins (galectin-4C; ratio of Kd) |
| --- | --- | --- | --- | --- | --- | --- | --- |
| 34 ± 3 | ≤ 79 | 9.6 ± 2.3 | 240 ± 54 | 180 ± 1 |  | OC[C@H]1O[C@@H](c2cn(-c3ccccn3)nn2)[C@H](O)[C@@H](n2cc(-c3ccccc3)nn2)[C@H]1O [Compound 16b, 1,3-Dideoxy-1-(1-(2-pyridyl)-1H-1,2,3-triazol-4-yl)-3-(4-(phenyl)-1H-1,2,3-triazolyl)-β-D-galactopyranosyl] |  |
| 200 ± 32 |  | 9.5 ± 1.3 | 130 ± 20 | 220 ± 10 | 20 | OC[C@H]1O[C@@H](Cn2cc(-c3ccc(F)cc3)nn2)[C@H](O)[C@@H](n2cc(-c3ccccc3)nn2)[C@H]1O [Compound 24a] | twenty-onefold and up to thirty-sevenfold |
| 720 ± 78 |  | 12 ± 1.7 | 760 ± 32 | 440 ± 68 |  | OC[C@H]1O[C@@H](Cn2cc(-c3ccc(C(F)(F)F)cc3)nn2)[C@H](O)[C@@H](n2cc(-c3ccccc3)nn2)[C@H]1O [Compound 24b, 1-((4-(1-Phenyl-1H-1,2,3-triazol-4-yl)-1,3-dideoxy-β-D-galactopyranosyl)methyl)-4-(4-(trifluoromethyl)phenyl)-1H-1,2,3-triazole] | twenty-onefold and up to thirty-sevenfold |
| 90 ± 13 |  | 19 ± 2.9 | 290 ± 32 | 140 ± 5 |  | OC[C@H]1O[C@@H](Cn2cc(-c3ccccc3)nn2)[C@H](O)[C@@H](n2cc(-c3ccccc3)nn2)[C@H]1O [Compound 24c, 1-((4-(1-Phenyl-1H-1,2,3-triazol-4-yl)-1,3-dideoxy-β-D-galactopyranosyl)methyl)-4-phenyl-1H-1,2,3-triazole] |  |
| 91 ± 2 |  | 22 ± 2.8 | 130 ± 23 | 240 ± 5 |  | OC[C@H]1O[C@@H](Cn2cc(-c3cc(F)c(F)c(F)c3)nn2)[C@H](O)[C@@H](n2cc(-c3ccccc3)nn2)[C@H]1O [Compound 24d] |  |
